Here are results for 8 compounds from PubChem BioAssay (NCI).

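Results reflect a 48-hour exposure of cells in 96-well plates to compound at five concentrations. TGI: total growth inhibition.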 Where only a bound is given, the exact number is not on record here.

Among the test systems are XF 498 CNS; DMS 114 small cell lung; LXFL 529 NSCLC; RXF-631 renal; P388/ADR leukemia; SN12K1 renal; P388 leukemia; HOP-18 NSCLC; KM20L2 colon.
What all share (assay): NCI tumour cell line growth inhibition, 48 h

On to `COC(=O)C(=O)Cc1nc2ccccc2o1`, for which the TGI with XF 498 CNS, in the assay with DMS 114 small cell lung, with LXFL 529 NSCLC and in the assay on RXF-631 renal was > 100 µM each time.

For `O=NN(CCF)C(=O)NC1CCSCC1`, the TGI in the assay with DMS 114 small cell lung, in the assay with P388/ADR leukemia, in the assay on SN12K1 renal, in the assay with P388 leukemia, in the assay with HOP-18 NSCLC and in the assay with KM20L2 colon was > 100 µM in each case.

`CN1CCN(P2(=S)Oc3ccc4ccccc4c3-c3c(ccc4ccccc34)O2)CC1`: the TGI is 67.3 µM in the assay with XF 498 CNS; > 100 µM with DMS 114 small cell lung; > 95.5 µM with P388/ADR leukemia; 56.9 µM in the assay with SN12K1 renal; > 68 µM in the assay with P388 leukemia; > 100 µM in the assay with HOP-18 NSCLC. Further, the TGI in the assay on KM20L2 colon was > 61.7 µM.

Take `O=C1CCCC/C1=C\c1ccc(Cl)c(Cl)c1`: the TGI is 41.1 µM in the assay with DMS 114 small cell lung, 31.2 µM with LXFL 529 NSCLC, 51.7 µM in the assay with HOP-18 NSCLC and 40.9 µM in the assay with KM20L2 colon.

`CCCCCCCCCCCC[N+](CCCCCCCCCCCC)=C1SCCS1`: the TGI in the assay on DMS 114 small cell lung was found to be 3.58 µM; in the assay on LXFL 529 NSCLC it was 14 µM; in the assay with RXF-631 renal, 52.2 µM; with HOP-18 NSCLC it was 30 µM; with KM20L2 colon, 18.4 µM.

Turning to `CCOC(=O)c1c[nH]c2ccc3c(c2c1=O)S(=O)(=O)CC3` (tested in a mixture with another compound), the TGI in the assay on XF 498 CNS, in the assay on DMS 114 small cell lung, in the assay with P388/ADR leukemia, in the assay with SN12K1 renal, in the assay with P388 leukemia and with HOP-18 NSCLC was > 100 µM throughout. In addition, the TGI in the assay with KM20L2 colon was > 100 µM.

As to `O=C1N[C@@H]2C(=C[C@H](O)[C@@H](O)[C@H]2O)c2cc3c(c(O)c21)OCO3`, the TGI came out at 0.0541 µM in the assay on XF 498 CNS; 0.45 µM with P388/ADR leukemia; 0.1 µM in the assay on SN12K1 renal; 0.969 µM in the assay on P388 leukemia; 0.281 µM with HOP-18 NSCLC; 0.315 µM in the assay with KM20L2 colon.

Take `O=C1NC2CCCCCC2C12CCCCC2` (centres undefined): the TGI in the assay with XF 498 CNS, with DMS 114 small cell lung, with LXFL 529 NSCLC, in the assay on RXF-631 renal and in the assay on KM20L2 colon was > 100 µM in each case.
